These results are taken from patent publication US6855549B1, “Methods and compositions for increasing the infectivity of gene transfer vectors” (The University of Iowa Research Foundation, priority 1998, dated 2005).

The test system of one data set is human nasal epithelium. Description: Nasal transepithelial voltage (Vt) in human volunteers. In kind it is in vivo. The method, then:
Human studies. The Vt across the nasal epithelium was measured in 6 volunteers using previously described methods (Zabner et al., 1996). The protocol followed was identical to that described above for the rabbit studies. […] The catheter was then left in that position for the entire recording period. The solutions were administered through the second lumen in the following order: 1) Normal saline for 5 min; 2) Sterile water with 10 mM EGTA or 10 mM EDTA for 10 min; 3) Nommal saline with 10 mM EGTA or 10 mM EDTA for 5 min; and 4) Normal saline with 10 mM, EGTA or 10 mM EDTA plus […] amiloride for 5 min. Measurements of Vt were read by two investigators who were blinded and wvere checked by a third investigator if there was a discrepancy of more than 2 mV. Disruption of epithelial junctions was assessed by detecting a fall in nasal Vt after perfusion with the chelator, and by the loss of amiloride-sensitive Vt after perfusion with the. chelator solution.

The subject of data set [1] is differentiated human airway epithelia. In kind it is cell-based.
A further data set concerns lung. Description: Lung morphology (H & E) 1 wk after EGTA/water instillation. In kind it is in vivo, rat. The protocol:
Preliminary studies were performed in rats to test the feasibility of using hypotonic solutions with EGTA to increase transepithelial permeability in vivo. 3 wk old rats were tracheotomized and a small caliber PE catheter inserted into the left lobe of the lung. 100 μl of 3 or 12 mM EGTA in water or PBS was mixed with […] fluorescent beads (a marker for viral particles) and instilled into the lungs. One hour later the animals were sacrificed and lung, tissue sections examined under fluorescence microscopy to determine if the fluorescent beads penetrated the epithelial layer. In the PBS control animal, fluorescent particles were only noted in the airway lunen. […] It also was asked if animals treated with EGTA/H2O developed changes in lung morphology. Animals received PBS or 12, 60, or 120 mM EGTA/water into the left lobe of the lung and 1 wk later were sacrificed and H & E stained lung tissues examined.

The subject of data set [2] is rabbit tracheal epithelium. Description: Tracheal transepithelial voltage (Vt) in anesthetized rabbits. In kind it is in vivo. The protocol:
Rabbit studies. The transepithelial electrical potential difference across the rabbit tracheal epithelium (Vt) was measured using a modification of previously described methods (Zabner et al., 1996). The reference electrode was a subcutaneous needle connected with sterile normal saline solution to a silver/silver chloride pellet. Adult New Zealand white rabbits (n=4/group) were anesthetized with 32 mg/kg ketamine, 5.1 mg/kg xylazine and 0.8 mg/kg acepromazine intramuscularly and placed with the head in the dependent position. An exploring electrode (pediatric size 8 Teflon-coated latex double lumen Foley catheter, modified Ruseh, Inc., Duluth, Ga.) was inserted into the tracheal lumen via a tracheotomy incision. One lumen of the catheter was filled with sterile normal saline solution and was connected to a silver/silver chloride pellet. Voltage was measured with a voltmeter connected to a strip chart recorder. The catheter was then left in that position for the entire recording period. The solutions were administered through the second lumen in the following order: 1) Normal saline for 5 min; 2) Sterile water with 10 mM EGTA for 10 min; 3) Normal saline with 10 mM EGTA for 5 min; and 4) Normal saline with 10 mM EGTA plus 100 μM amiloride for 5 min. Measurements of Vt were read by two investigators who were blinded to the treatment received. There wre no discrepancies in readings of greater than 2 mV between the investigators. Disruption of epithelial junctions was assessed by detecting a fall in […] Vt after perfusion with the chelator, and by the loss of amiloride-sensitive Vt after perfusion with the chelator solution.

Data set [3] has as its system differentiated human airway epithelia. Description: Transepithelial resistance of KGF-treated airway epithelia with Ca2+ chelators. The conditions noted are these: 6 mM chelator, isotonic (220 mmol/kg). Type of data set: cell-based. The protocol: Differentiated epithelial cells were treated with 100 ng/ml KGF for 24 hr. Different concentrations of each calcium chelator in HEPES/HCl (pH 7.4) or in isotonic HEPES/saline (pH 7.4) buffer were mixed with vector buffer and applied to the apical surface for times as specified (Wang et al., 1998). Transepithelial resistance was measured with an Ohmmeter (EVOM; World Precision Instruments, Inc. Sarasota, Fla.) by adding cell culture media to the apical surface and the values were compared to untreated controls.
To understand whether the tonicity of the vector solution affects epithelial permeability and gene transfer efficiency, hypotonic (40 mmol/kg) or isotonic (220 mmol/kg) solutions of 6 mM EGTA, EDTA or BAPTA were added to the MuLV vector buffer and applied to the apical surface of differentiated airway epithelial cells pre-treated with KGF. At specific time intervals, transepithelial resistance (R1) was measured using an Ohmmeter.

The subject of data set [4] is differentiated human airway epithelial cells. In kind it is cell-based.
In data set [5] the test system is polarized human bronchial epithelial cells. Nature of the data set: Transepithelial resistance of polarized bronchial cultures after hypotonic EGTA. Type of data set: cell-based. The conditions noted are these: 3 mM EGTA-H2O, 10 min, 37° C., immediate. The protocol:
For the UV irradiation studies, Millicell inserts were put transiently into empty 100-mm tissue culture plates (apical side up) and exposed to 25 J/m^2 of UV light (254 nm). After irradiation, the Millicell inserts were quickly returned to plates containing Ultraser G culture medium on the basolateral side. Infections with rAAV were performed immediately following UV irradiation by application of 5×10^9 rAAV particles in 100 μl to either the apical or basolateral side of the support membrane as described above. Keratinocyte growth factor (KGF) treatment was performed at a final concentration of 100 ng/ml by addition to the basolateral culture medium for two sequential 24-hr incubations prior to AAV infection. Transient disruption of tight junctions was achieved by treating polarized cells with 3 mM EGTA in water for 10 min. After hypotonic EGTA treatment, cultures were washed twice with culture medium and infected with 5×10^9 rAAV particles in […] on either the apical or basolateral side of support membranes.
The transepithelial resistance of primary airway cultures was monitored with an ohm meter (EVOM; World Precision Instruments, Sarasota Fla.), as previously described (Wang et al., 1998). […] Electrodes were placed in both the mucosal and serosal compartments of the Millicell inserts and the resistance across the epithelia was recorded.

Data set [6] deals with differentiated human airway epithelia. In kind it is cell-based. The conditions noted are these: VSV-G pseudotyped HIV-based lentivirus.
Where [7] appears, read: vector to apical surface with EGTA in vector buffer, 200 cells counted.

Each structure is given as a SMILES string. “Also recorded” adds a separate entry of the source. Where two headings read alike, the source gives them in different places.

For `O=C(O)CN(CCOCCOCCN(CC(=O)O)CC(=O)O)CC(=O)O` [EGTA], the “adverse effects of nasal perfusion” value in the data set with human nasal epithelium (10 mM EGTA, volunteers) is “did not experience any adverse effects”. In the data set on human nasal epithelium (H2O/chelator then chelator in saline, 10 mM), the “nasal Vt” value is recorded as “there was a significant decrease in the Vt”. In the data set on human nasal epithelium (n=6), the “amiloride-sensitive nasal Vt after EGTA treatment” value is “EGTA treatment abolished the amiloride-sensitive Vt; also recorded: essentially no amiloride-sensitive Vt remained”. In addition, the effect on proliferation entry in data set [1] (application of H2O or EGTA to epithelia, control studies) is “had no effect on proliferation”. The β-gal positive cells in data set [1] (pretreated with combination of water and EGTA 20 min, then vector, mean±SE, n=9) is recorded as 20.3±2.5%; in data set [1] (sequential water then EGTA in water 10 min each, then vector), 8±1.3%; in data set [1] (water and EGTA 20 min, then vector containing EGTA, 3 days after delivery, mean±SE, n=9), 34.3±5.4%. Further, in data set [1] (setting [7]), the “share of β-gal positive cells that are basal cells” value came to 36%. Further, the “share of β-gal positive cells that are ciliated cells” value in data set [1] (setting [7]) was found to be 28%. Moreover, the “share of β-gal positive cells that are intermediate cells” value in data set [1] (setting [7]) is given as 36%. Moreover, the lung morphology result with lung (120 mM EGTA) is recorded as “thickening of the interstitial space was noted”; with lung (12 or 60 mM EGTA/water), “morphology similar to the control”. The “amiloride-sensitive Vt after hypotonic/EGTA treatment” value in data set [2] (100 μM amiloride) is “there was no residual amiloride-sensitive Vt; also recorded: amiloride had no effect on Vt”. For the same compound, the “tracheal Vt” value in data set [2] (hypotonic solution with 10 mM EGTA then saline with 10 mM EGTA) is “caused a significant fall in Vt”. Besides, in data set [3], the “time required to decrease R1 to ~20% of the controls” value is reported as “Sixty”. Further, the “effect of EGTA solution alone on cell proliferation (BrdU histochemistry)” value in data set [4] is “had no effect on cell proliferation”. For the same compound, the “decrease in transepithelial resistance” value in data set [5] was “greater than 10 fold”. The “gene transfer, apical surface of quiescent cells with EGTA/hypotonic buffer” value in data set [6] is on record as “gene transfer was enhanced”.
